# According to ChEMBL document CHEMBL5029175, “Discovery of MK-4688: an Efficient Inhibitor of the HDM2-p53 Protein-Protein Interaction” (J Med Chem, 2021):
# Columns and labels:
# [1] = biological target: E3 ubiquitin-protein ligase Mdm2 (Homo sapiens, UniProt Q00987); experiment: Binding affinity to HDM2 (unknown origin)
# [2] = Clearance in rhesus monkey plasma at 0.5 mg/kg, iv; assay type: ADME, organism-based, Macaca mulatta
# [3] = Plasma protein binding in rhesus monkey; assay type: ADME, cell-free, Macaca mulatta; conditions: read-out: PPB (converted)
# [4] = Terminal half life in rat at 1 mg/kg, po or 0.5 mg/kg, iv; assay type: ADME, organism-based; conditions: in vivo, read-out: beta t1/2 (converted)
# Cytochrome P450 3A4 [5] = biological target: T1, Cytochrome P450 3A4 (Homo sapiens, UniProt P08684); experiment: Inhibition of CYP3A4 (unknown origin); assay type: ADME
# [6] = Volume of distribution in dog at 0.5 mg/kg, po or 0.25 mg/kg, iv; assay type: ADME, organism-based, Canis lupus familiaris; conditions: in vivo
# [7] = Toxicity in CD-1 mouse xenografted with human SJSA-1 cells assessed as body weight loss at 50 to 100 mg/kg, po administered once daily for 7 consecutive days followed by 2 weeks off dosing schedule; assay type: organism-based; conditions: in vivo, 504 h, dose 50-100 mg/kg, time 3 weeks
# Cytochrome P450 2D6 = Cytochrome P450 2D6 (Homo sapiens, UniProt P10635); experiment: Inhibition of CYP2D6 (unknown origin); assay type: ADME
# Cytochrome P450 2C8 = biological target: T2, Cytochrome P450 2C8 (Homo sapiens, UniProt P10632); experiment: Inhibition of CYP2C8 (unknown origin); assay type: ADME
# T2 sequence (P10632 whole entry): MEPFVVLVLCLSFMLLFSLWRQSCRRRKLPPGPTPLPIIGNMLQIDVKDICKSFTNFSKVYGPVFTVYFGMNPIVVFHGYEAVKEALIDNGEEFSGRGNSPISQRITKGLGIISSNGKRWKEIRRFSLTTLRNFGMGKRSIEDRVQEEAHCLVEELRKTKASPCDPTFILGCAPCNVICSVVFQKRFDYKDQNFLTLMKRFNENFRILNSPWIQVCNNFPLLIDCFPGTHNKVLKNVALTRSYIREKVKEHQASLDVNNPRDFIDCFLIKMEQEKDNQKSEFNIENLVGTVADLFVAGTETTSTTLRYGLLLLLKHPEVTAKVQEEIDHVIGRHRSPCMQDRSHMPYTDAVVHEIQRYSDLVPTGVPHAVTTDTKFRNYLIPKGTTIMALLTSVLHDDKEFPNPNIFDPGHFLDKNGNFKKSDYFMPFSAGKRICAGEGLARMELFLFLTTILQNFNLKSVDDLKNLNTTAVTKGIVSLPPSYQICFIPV
# [8] = Bioavailability in rat; assay type: ADME, organism-based; conditions: in vivo
# [9] = Terminal half life in dog at 0.5 mg/kg, po or 0.25 mg/kg, iv; assay type: ADME, organism-based, Canis lupus familiaris; conditions: in vivo, read-out: beta t1/2 (converted)
# [10] = Volume of distribution in rat at 1 mg/kg, po or 0.5 mg/kg, iv; assay type: ADME, organism-based; conditions: in vivo
# [11] = Unbound clearance in rat; assay type: ADME; conditions: in vivo
# [12] = Clearance in dog plasma at 0.5 mg/kg, po or 0.25 mg/kg, iv; assay type: ADME, organism-based, Canis lupus familiaris
# SJSA-1 = experiment: Antitumor activity against human SJSA-1 cells xenografted in po dosed CD-1 nu/nu mouse assessed as tumor growth inhibition administered once daily for 7 consecutive days followed by 2 weeks off dosing schedule; assay type: functional, organism-based; conditions: time 3.0 weeks
# [13] = Intrinsic clearance in rat hepatocytes; assay type: ADME, cell-based, Hepatocyte; conditions: read-out: CLH
# HCT-116 = experiment: cells; conditions: Homo sapiens, HCT-116, 72 h
# [14] = biological target: Voltage-gated inwardly rectifying potassium channel KCNH2 (Homo sapiens, UniProt Q12809); experiment: Inhibition of human ERG
# [15] = Plasma protein binding in dog; assay type: ADME, cell-free, Canis lupus familiaris; conditions: read-out: PPB (converted)
# Mus musculus = experiment: In vivo activation of p53 pathway in human SJSA-1 cells xenografted in po dosed CD-1 nu/nu mouse assessed as induction of p21 mRNA expression measured after 6 hrs; assay type: functional, organism-based; conditions: dose 100.0 mg/kg
# [16] = Mean residence time in dog; assay type: ADME, Canis lupus familiaris; conditions: in vivo
# [17] = Plasma protein binding in human; assay type: ADME, cell-free; conditions: read-out: PPB (converted)
# [18] = Lipophilicity, logD of the compound at pH 7 by RP-HPLC analysis; assay type: physicochemical; conditions: buffer
# [19] = Bioavailability in dog; assay type: ADME, organism-based, Canis lupus familiaris; conditions: in vivo
# [20] = Bioavailability in rat at 1 mg/kg, po or 0.5 mg/kg, iv; assay type: ADME, organism-based; conditions: in vivo
# [21] = Intrinsic clearance in human hepatocytes; assay type: ADME, cell-based, Hepatocyte; conditions: read-out: CLH
# Cytochrome P450 2C9 = Cytochrome P450 2C9 (Homo sapiens, UniProt P11712); experiment: Inhibition of CYP2C9 (unknown origin); assay type: ADME
# [22] = Clearance in rat plasma at 1 mg/kg, po or 0.5 mg/kg, iv; assay type: ADME, organism-based
# Cytochrome P450 3A4 [23] = biological target: T1, Cytochrome P450 3A4; experiment: Activation of CYP3A4 (unknown origin); assay type: ADME
# [24] = Volume of distribution in rhesus monkey at 0.5 mg/kg, iv; assay type: ADME, organism-based, Macaca mulatta; conditions: in vivo
# [25] = Terminal half life in rhesus monkey at 0.5 mg/kg, iv; assay type: ADME, organism-based, Macaca mulatta; conditions: in vivo, read-out: beta t1/2 (converted)
# [26] = Plasma protein binding in rat; assay type: ADME, cell-free; conditions: read-out: PPB (converted)
# [27] = Intrinsic Clearance in rhesus monkey hepatocytes; assay type: ADME, cell-based, Macaca mulatta, Hepatocyte; conditions: read-out: CLH
# [28] = Mean residence time in rat; assay type: ADME; conditions: in vivo
# [29] = Intrinsic clearance in dog hepatocytes; assay type: ADME, cell-based, Canis lupus familiaris, Hepatocyte; conditions: read-out: CLH
# [30] = Bioavailability in dog at 0.5 mg/kg, po or 0.25 mg/kg, iv; assay type: ADME, organism-based, Canis lupus familiaris; conditions: in vivo
# [31] = Unbound clearance in dog; assay type: ADME, Canis lupus familiaris; conditions: in vivo
# [32] = Selectivity index, ratio of IC50 for inhibition of HDM2/p53 interaction in human HCT-116 cells expressing p53/Bla to IC50 for inhibition of N-terminal thioredoxin-His6 tagged HDM2 (17 to 125 residues)/p53 protein-protein interaction (unknown origin); assay type: cell-based
# [33] = biological target: Tumour suppressor p53/oncoprotein Mdm2 (Homo sapiens, UniProt Q00987); experiment: Inhibition of HDM2/p53 interaction in human HCT-116 cells expressing p53RE/Bla incubated for 16 hrs by beta-lactamase reporter gene assay; assay type: cell-based
# [34] = Clearance in rat plasma; assay type: ADME, cell-free
# [35] = Oral bioavailability in rat; assay type: ADME, organism-based; conditions: in vivo
# T1 sequence (P08684 whole entry): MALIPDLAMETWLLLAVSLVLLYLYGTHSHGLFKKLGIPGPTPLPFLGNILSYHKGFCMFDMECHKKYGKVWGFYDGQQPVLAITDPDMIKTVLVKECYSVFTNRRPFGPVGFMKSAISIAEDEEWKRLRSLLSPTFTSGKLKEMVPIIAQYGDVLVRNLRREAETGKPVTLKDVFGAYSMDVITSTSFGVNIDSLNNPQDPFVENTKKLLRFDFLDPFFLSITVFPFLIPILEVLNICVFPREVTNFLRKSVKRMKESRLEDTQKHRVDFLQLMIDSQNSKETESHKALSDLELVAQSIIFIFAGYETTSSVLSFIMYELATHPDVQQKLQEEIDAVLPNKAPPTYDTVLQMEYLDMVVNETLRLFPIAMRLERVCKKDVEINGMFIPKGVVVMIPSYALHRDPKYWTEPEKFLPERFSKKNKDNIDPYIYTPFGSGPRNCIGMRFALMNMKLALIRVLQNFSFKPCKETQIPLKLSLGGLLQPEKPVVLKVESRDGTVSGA
# Tumour suppressor p53/oncoprotein Mdm2, sequence (P04637 whole entry): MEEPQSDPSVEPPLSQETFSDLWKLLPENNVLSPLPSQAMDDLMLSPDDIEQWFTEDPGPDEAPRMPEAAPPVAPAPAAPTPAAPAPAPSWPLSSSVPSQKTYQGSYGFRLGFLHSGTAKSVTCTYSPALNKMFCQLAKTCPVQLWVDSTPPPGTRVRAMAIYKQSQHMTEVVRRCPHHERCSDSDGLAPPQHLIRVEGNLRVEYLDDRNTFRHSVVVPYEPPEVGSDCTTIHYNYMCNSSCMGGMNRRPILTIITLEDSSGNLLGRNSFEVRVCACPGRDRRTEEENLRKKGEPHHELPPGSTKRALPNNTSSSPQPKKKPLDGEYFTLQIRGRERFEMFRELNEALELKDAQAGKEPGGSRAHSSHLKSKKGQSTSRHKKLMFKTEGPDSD
# Tumour suppressor p53/oncoprotein Mdm2, sequence (Q00987 whole entry): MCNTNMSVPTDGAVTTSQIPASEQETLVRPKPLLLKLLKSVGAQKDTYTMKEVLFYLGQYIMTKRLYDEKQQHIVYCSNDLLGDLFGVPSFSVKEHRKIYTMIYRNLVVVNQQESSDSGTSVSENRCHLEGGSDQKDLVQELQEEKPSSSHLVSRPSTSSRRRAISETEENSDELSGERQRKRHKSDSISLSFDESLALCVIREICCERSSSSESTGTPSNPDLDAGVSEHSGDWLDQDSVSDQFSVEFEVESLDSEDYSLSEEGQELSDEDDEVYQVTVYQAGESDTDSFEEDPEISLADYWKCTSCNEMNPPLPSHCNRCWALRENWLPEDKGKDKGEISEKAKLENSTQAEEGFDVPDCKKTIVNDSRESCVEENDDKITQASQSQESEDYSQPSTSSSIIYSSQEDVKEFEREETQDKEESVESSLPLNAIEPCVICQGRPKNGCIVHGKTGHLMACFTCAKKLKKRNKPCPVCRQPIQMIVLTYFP
# Voltage-gated inwardly rectifying potassium channel KCNH2, sequence (Q12809 whole entry): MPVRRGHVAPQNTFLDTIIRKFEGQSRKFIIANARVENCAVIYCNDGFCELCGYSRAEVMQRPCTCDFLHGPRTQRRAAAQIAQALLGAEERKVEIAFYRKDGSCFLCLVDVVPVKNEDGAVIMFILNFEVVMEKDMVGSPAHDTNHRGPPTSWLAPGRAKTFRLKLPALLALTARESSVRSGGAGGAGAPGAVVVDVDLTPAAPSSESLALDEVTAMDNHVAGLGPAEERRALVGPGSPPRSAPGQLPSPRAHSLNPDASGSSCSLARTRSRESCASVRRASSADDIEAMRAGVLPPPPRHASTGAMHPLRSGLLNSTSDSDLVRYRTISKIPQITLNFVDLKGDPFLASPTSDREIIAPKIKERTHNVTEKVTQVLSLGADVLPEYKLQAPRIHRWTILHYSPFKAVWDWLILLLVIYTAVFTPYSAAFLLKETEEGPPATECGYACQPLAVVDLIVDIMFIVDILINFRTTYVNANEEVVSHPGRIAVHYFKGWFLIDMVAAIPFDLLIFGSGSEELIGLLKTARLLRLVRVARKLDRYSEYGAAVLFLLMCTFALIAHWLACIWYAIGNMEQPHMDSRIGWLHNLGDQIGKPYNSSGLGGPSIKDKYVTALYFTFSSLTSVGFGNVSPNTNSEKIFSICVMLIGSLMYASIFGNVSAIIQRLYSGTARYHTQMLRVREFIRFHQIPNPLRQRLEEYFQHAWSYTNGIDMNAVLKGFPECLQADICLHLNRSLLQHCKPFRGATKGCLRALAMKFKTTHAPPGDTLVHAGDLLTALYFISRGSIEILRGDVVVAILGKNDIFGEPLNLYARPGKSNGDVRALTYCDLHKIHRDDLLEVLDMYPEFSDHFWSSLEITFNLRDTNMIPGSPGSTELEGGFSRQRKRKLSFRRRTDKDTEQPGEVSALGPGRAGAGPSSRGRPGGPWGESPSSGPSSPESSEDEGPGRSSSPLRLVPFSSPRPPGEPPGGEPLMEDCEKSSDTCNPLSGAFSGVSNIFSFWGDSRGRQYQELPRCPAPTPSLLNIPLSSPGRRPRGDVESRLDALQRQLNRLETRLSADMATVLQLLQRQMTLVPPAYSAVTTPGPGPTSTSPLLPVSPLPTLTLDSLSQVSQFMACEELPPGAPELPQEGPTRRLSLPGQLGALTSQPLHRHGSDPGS
# E3 ubiquitin-protein ligase Mdm2, sequence (Q00987 whole entry): as the sequence (Q00987 whole entry) above
# Cytochrome P450 2C9, sequence (P11712 whole entry): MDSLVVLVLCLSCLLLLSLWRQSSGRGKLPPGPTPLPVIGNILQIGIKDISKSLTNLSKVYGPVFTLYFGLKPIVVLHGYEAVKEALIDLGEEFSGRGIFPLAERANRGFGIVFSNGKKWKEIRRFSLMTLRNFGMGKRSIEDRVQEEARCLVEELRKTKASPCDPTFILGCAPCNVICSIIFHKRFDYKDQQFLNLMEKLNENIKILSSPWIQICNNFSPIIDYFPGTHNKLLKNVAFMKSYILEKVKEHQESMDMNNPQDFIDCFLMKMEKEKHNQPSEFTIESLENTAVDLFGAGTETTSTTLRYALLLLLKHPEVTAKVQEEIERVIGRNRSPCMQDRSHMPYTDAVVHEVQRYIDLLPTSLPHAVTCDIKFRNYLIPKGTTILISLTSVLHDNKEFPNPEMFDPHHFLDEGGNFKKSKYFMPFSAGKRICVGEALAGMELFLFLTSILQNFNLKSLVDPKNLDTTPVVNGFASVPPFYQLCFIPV
# Cytochrome P450 2D6, sequence (P10635 whole entry): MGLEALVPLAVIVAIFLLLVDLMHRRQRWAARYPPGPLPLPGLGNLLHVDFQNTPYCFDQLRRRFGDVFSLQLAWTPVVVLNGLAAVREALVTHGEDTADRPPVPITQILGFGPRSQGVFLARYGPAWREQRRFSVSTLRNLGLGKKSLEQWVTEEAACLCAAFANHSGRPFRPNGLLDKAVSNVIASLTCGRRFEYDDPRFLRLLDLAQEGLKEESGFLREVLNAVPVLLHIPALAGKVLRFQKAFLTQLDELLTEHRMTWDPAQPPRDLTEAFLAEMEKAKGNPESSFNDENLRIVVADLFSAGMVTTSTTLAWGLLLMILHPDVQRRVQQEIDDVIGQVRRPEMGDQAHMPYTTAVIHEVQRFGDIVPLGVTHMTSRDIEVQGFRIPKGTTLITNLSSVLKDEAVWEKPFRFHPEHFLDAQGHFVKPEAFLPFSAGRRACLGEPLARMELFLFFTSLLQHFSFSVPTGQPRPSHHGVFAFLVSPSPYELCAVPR
compound,measurement,setting,value
CCC[C@H]1N(C(=O)c2ncccc2C(F)(F)F)CCC[C@@]1(Oc1csc(C(F)(F)F)c1)C(=O)N1CCC(O)(c2ccccc2O[C@H](C)CCC2(C(=O)O)CCC2)CC1,Kd,[1],0.0038 µM
C[C@H]1CC[C@H](Cn2c(N3CCO[C@@H]4CCC[C@H]43)nc3cc(-c4noc(=O)[nH]4)nc(-c4cncc(Cl)c4)c32)CC1,clearance,[2],0.744 L/h/kg
same,fraction unbound,[3],0.006
same,half-life,[4],3 h
same,IC50,Cytochrome P450 3A4 [5],> 50 µM
same,Vd,[6],0.39 L/kg
same,Activity,[7],Non-Toxic
same,IC50,Cytochrome P450 2D6,> 50 µM
same,IC50,Cytochrome P450 2C8,0.8 µM
same,bioavailability,[8],24%
same,half-life,[9],4.2 h
same,Vd,[10],1.3 L/kg
same,CL free,[11],312.8 L/h/kg
same,clearance,[12],0.084 L/h/kg
same,Activity,SJSA-1,Dose-Dependent Effect
same,CLint scaled,[13],15.1 L/h/kg
same,IC50,HCT-116,0.122 µM
same,IC50,[14],12 µM
same,fraction unbound,[15],0.009
same,Activity,Mus musculus,Dose-Dependent Effect
same,MRT,[16],5.9 h
same,fraction unbound,[17],0.008
same,logD,[18],2.46
same,bioavailability,[19],86%
same,bioavailability,[20],24%
same,CLint scaled,[21],3.48 L/h/kg
same,IC50,Cytochrome P450 2C9,31 µM
same,clearance,[22],2.16 L/h/kg
same,EC50,Cytochrome P450 3A4 [23],> 30 µM
same,Vd,[24],0.91 L/kg
same,half-life,[25],1.6 h
same,fraction unbound,[26],0.007
same,CLint scaled,[27],4.2 L/h/kg
same,MRT,[28],0.6 h
same,CLint scaled,[29],4.68 L/h/kg
same,bioavailability,[30],86%
same,CL free,[31],7.32 L/h/kg
C[C@@H](Nc1nc(-c2noc(=O)[nH]2)nc2nc(N3CCOC[C@H]3c3ccccc3)n(C[C@H]3CC[C@H](C)CC3)c12)C1CCC1,Ratio IC50,[32],100
same,IC50,[33],0.064 µM
same,clearance,[34],4.38 L/h/kg
same,IC50,HCT-116,0.446 µM
same,logD,[18],3.27
same,bioavailability,[35],2%
same,MRT,[28],0.73 h
